Experimental data reported in patent US6451973B1, “Anilinopeptide derivatives” (Novatis AG, priority 1996, dated 2002).

Row | Compound | melting point
1 | CC[C@H](C)[C@H](NC(=O)OC)C(=O)NN(Cc1ccc(N2CCCC2)cc1)C[C@H](O)[C@H](Cc1ccccc1)NC(=O)[C@@H](NC(=O)OC)C(C)(C)C [Example 9, 1-[p-(Pyrrolidin-1-yl)phenyl]-4(S)-hydroxy-2-[N-(N-methoxycarbonyl-(L)-isoleucyl)amino]-5(S)-[N-(N-methoxycarbonyl-(L)-tert-leucyl)amino]-6-phenyl-2-azahexane] | 158 to 161 °C
2 | COC(=O)N[C@H](C(=O)N[C@@H](Cc1ccccc1)[C@@H](O)CN(Cc1ccc(N2CCCC2)cc1)NC(=O)[C@@H](NC(=O)OC)C(C)(C)C)C(C)C [Example 11, 1-[p-(Pyrrolidin-1-yl)phenyl]-4(S)-hydroxy-2-[N-(N-methoxycarbonyl-(L)-tert-leucyl)amino]-5(S)-[N-(N-methoxycarbonyl-(L)-valyl)amino]-6-phenyl-2-azahexane] | 118 to 121 °C (dec.)
